Consider 19 compounds from article PMC3375360 (Journal of Medicinal Chemistry, 2012).

Common to all, as to type: cell-based
In series [1] the test system is T.b. rhodesiense, strain STIB 900 trypomastigotes. Kind of series: In vitro growth inhibition of bloodstream form T. b. rhodesiense trypomastigotes. The note with it: for activity designation against T. b. rhodesiense: TDR criteria.
The test system of series [2] is T. cruzi, strain Tulahuen C4 amastigotes. The series is described as follows: In vitro growth inhibition of T. cruzi amastigotes in infected L6 myoblasts.
In series [3] the test system is L. donovani axenic, strain MHOM-ET-67/L82 amastigotes. The series is described as follows: In vitro growth inhibition of axenically cultured L. donovani amastigotes. Conditions: for activity designation against L. donovani: TDR criteria.
Series [4] relates to bloodstream form T. b. brucei parasites, engineered to overexpress type I nitroreductase. Kind of series: microbe, parasite or virus in culture. Conditions: Trypanosoma brucei, read-out: TbNTR −tet (IC50).
Series [5] relates to L6 cells (rat skeletal myoblasts). The series is described as follows: Cytotoxicity in L6 cells. Conditions: read-out: L6 IC50 (cytotoxicity).

On to `O=C(NCCCn1ccnc1[N+](=O)[O-])c1ccc(C(F)(F)F)cc1` [Compound 1], for which the “activity designation against T. b. rhodesiense” value in series [1] was “inactive”.

In the case of `O=C(NCCCn1ccnc1[N+](=O)[O-])c1ccc(OC(F)(F)F)cc1` [Compound 2, N-[3-(2-Nitro-1H-imidazol-1-yl)propyl]-4-(trifluoromethoxy)benzamide], the “activity designation against T. b. rhodesiense” value in series [1] is “inactive”. For `O=C(NCCCCn1cnc([N+](=O)[O-])n1)c1ccc(OC(F)(F)F)cc1` [Compound 6, N-[4-(3-Nitro-1H-1,2,4-triazol-1-yl)butyl]-4-(trifluoromethoxy)benzamide], in series [2] (ratio IC50 in L6 cells/IC50 in T. cruzi), the “SI (T. cruzi)” value is greater than 2381. As for `O=C(NCCCn1cnc([N+](=O)[O-])n1)c1cc(C(F)(F)F)cc(C(F)(F)F)c1` [Compound 8, N-[3-(3-Nitro-1H-1,2,4-triazol-1-yl)propyl]-3,5-bis(trifluoromethyl)benzamide], in series [1], the “activity designation against T. b. rhodesiense” value is given as “inactivity”. Same read-out and setting: the result for `O=C(NCCCn1cnc([N+](=O)[O-])n1)c1ccc(C(F)(F)F)nc1` [Compound 9, N-[3-(3-Nitro-1H-1,2,4-triazol-1-yl)propyl]-6-(trifluoromethyl)pyridine-3-carboxamide] reads “moderate activity”; that for `O=C(NCCCn1cnc([N+](=O)[O-])n1)c1cnc2ccccc2n1` [Compound 12, N-[3-(3-Nitro-1H-1,2,4-triazol-1-yl)propyl]quinoxaline-2-carboxamide], “complete inactivity”; that for `O=C(NCCCn1cnc([N+](=O)[O-])n1)c1ccc(-c2ccccc2)cc1` [Compound 13, N-[3-(3-Nitro-1H-1,2,4-triazol-1-yl)propyl]-4-phenylbenzamide], “moderately active (IC50 = 0.5–6.0 μM)”.

As for `Cc1ccc2nc(NC(=O)Cn3cnc([N+](=O)[O-])n3)sc2c1` [Compound 17, N-(6-methyl-1,3-benzothiazol-2-yl)-2-(3-nitro-1H-1,2,4-triazol-1-yl)acetamide], in series [3], the “activity designation against L. donovani” value is “moderately active (IC50 = 1.0–6.0 μM)”. Also, in series [1], the “activity designation against T. b. rhodesiense” value was “inactive”.

For `O=C(Cn1cnc([N+](=O)[O-])n1)Nc1nc2ccc(Cl)cc2s1` [Compound 18, N-(6-chloro-1,3-benzothiazol-2-yl)-2-(3-nitro-1H-1,2,4-triazol-1-yl)acetamide], the “activity designation against L. donovani” value in series [3] is given as “moderately active (IC50 = 1.0–6.0 μM)”. The “activity designation against T. b. rhodesiense” value in series [1] was “inactive”. Turning to `O=C(Cn1cnc([N+](=O)[O-])n1)Nc1nc2cc(Cl)ccc2o1` [Compound 19, N-(5-chloro-1,3-benzoxazol-2-yl)-2-(3-nitro-1H-1,2,4-triazol-1-yl)acetamide], the “activity designation against T. b. rhodesiense” value in series [1] was “inactive”.

`O=[N+]([O-])c1nccn1CCCNS(=O)(=O)c1ccc(C(F)(F)F)cc1` [Compound 21, N-[3-(2-Nitro-1H-imidazol-1-yl)propyl]-4-(trifluoromethyl)benzene-1-sulfonamide]: the “activity designation against T. b. rhodesiense” value in series [1] was “inactive”. On the same count and under the same terms, the result for `O=[N+]([O-])c1ncn(CCCNS(=O)(=O)c2cc(C(F)(F)F)ccc2C(F)(F)F)n1` [Compound 25, N-[3-(3-Nitro-1H-1,2,4-triazol-1-yl)propyl]-2,5-bis(trifluoromethyl)benzene-1-sulfonamide] reads “inactivity”. On the same count and under the same terms, the result for `O=[N+]([O-])c1ncn(CCNS(=O)(=O)c2cc(C(F)(F)F)cc(C(F)(F)F)c2)n1` [Compound 26, N-[2-(3-nitro-1H-1,2,4-triazol-1-yl)ethyl]-3,5-bis(trifluoromethyl)benzene-1-sulfonamide] reads “inactivity”; that for `O=[N+]([O-])c1ncn(CCCNS(=O)(=O)c2cc(C(F)(F)F)cc(C(F)(F)F)c2)n1` [Compound 27, N-[3-(3-nitro-1H-1,2,4-triazol-1-yl)propyl]-3,5-bis(trifluoromethyl)benzene-1-sulfonamide], “inactivity”. As to `Cc1ccc(S(=O)(=O)NCCCn2cnc([N+](=O)[O-])n2)cc1` [Compound 28, 4-Methyl-N-[3-(3-nitro-1H-1,2,4-triazol-1-yl)propyl]benzene-1-sulfonamide], the “SI (L.don. ax.)” value in series [3] (ratio IC50 in L6 cells/IC50 in L. donovani) is listed as greater than 8.1.

`O=[N+]([O-])c1ncn(CCNS(=O)(=O)Cc2ccccc2)n1` [Compound 30, N-[2-(3-Nitro-1H-1,2,4-triazol-1-yl)ethyl]-1-phenylmethanesulfonamide]: in series [2] (TDR criteria), the “activity designation against T. cruzi” value is “moderately active (IC50 = 4.0–60 μM)”. Take `Nc1nc(N)nc(Nc2ccc([As]3SCC(CO)S3)cc2)n1` (stereo not drawn) [Melars., Melarsoprol, reference compound]: the IC50 (commonly the concentration that gives 50% inhibition) in series [1] (Trypanosoma brucei, RHODESIENSE|STIB900, read-out: T.b.rhod. IC50) was found to be 12 nM. Turning to `CC1CS(=O)(=O)CCN1/N=C/c1ccc([N+](=O)[O-])o1` (stereo not drawn) [Nfx, 4-(5-nitrofurfurylidenamino)-3-methylthio-morpholine-1,1-dioxide], the IC50 in series [4] stood at 1710 ± 60 nM. As to Podophylotoxin [Podoph.], in series [5], the IC50 turned out to be 22 nM.
